Reference: patent EP3936131A1, “COMPOUNDS FOR THE TREATMENT OF ZIKA” (Dompe' Farmaceutici S.P.A., priority 2020, dated 2022)

system: ZIKV (HS-2015-BA-01); assay: Plaque titration assay of supernatant from ZIKV-infected Vero CCL-81 cells treated with compound; type: cell-based, Zika Virus; settings: 30, 10 and 3 microM (AEE-788 and Olcegepant: 10 and 3 microM); MOI 0.1; two treatments 24 h apart; compared to vehicle control; values only in Figures 1 to 8
Procedure: The above compounds selected by the CADD analysis were tested in a ZIKV Vero CCL-81 cells (kidney epithelial cells from African green monkey) assay. This assay is based on viral infection of Vero cells followed by visual monitoring of cytopathic effects of the virus.
In details, the above compounds were diluted to the final concentrations of 30 microM, 10 microM and 3 microM. The final volume required for treatment was 200 microliters per well, in a total of 12 wells.
For infection of the cells, ZIKV (HS-2015-BA-01), isolated from a viremic patient with symptomatic infection in Bahia State, Brazil, in 2015, was used. The complete genome of the virus is under access KX520666 in Genbank. Viral dilutions were prepared in Multiplicity of Infection (MOI) at 0.1 according to a standardized method.
In particular, 37,9 microl of virus (6x10^7 pfu/mL) was used or a total of 25.000 microl (25 ml) RPMI-0% FBS medium
100 microliters of the viral dilution (MOI 0,1) were added to each well and incubated at 5% of CO2 at T= 37°C for 1 hour for adsorption step, swift rocking every 15'.
After discarding the supernatant, 200 microliters of diluted compounds at the different concentrations described above, or vehicle were added for each compound and left in incubation at 5% of CO2 at T= 37°C for 24 hours.
After 24 hours of the first treatment the treatment was repeated a second time, with the same concentration of each compound, and at the same conditions (5% of CO2 at T= 37°C for […]).
After 24 hours, the supernatant was collected and used to perform MTT, LDH plaque titration assays, as described above.
Vero CCL-81 cells (kidney epithelial cells from African green monkey) were seeded in 24-well plates at a density of […].
Cells were maintained in RPMI 1640 medium (Cultilab) supplemented with 10% FBS (Cultilab), 2 mM L-glutamine (Gibco) and 100U/50µg penicillin/streptomycin (Sigma-Aldrich) for 24 h at 37°C in a 5% CO2 incubator.
Serial ten-fold dilutions of viral suspension in sterile dilution tubes were prepared (10-1 up to 10-4). To this aim, tubes were filled with 450 microl of medium 0% SFB and 50 microl of the sample added on the first tube. The same procedure was repeated to obtain serial dilutions by passing 50 microliters to the next dilution and successively for the other dilutions. 300 µl of each serial dilution were added into each of the two wells of 24-well plate, maintaining two wells without infection.
The inoculated plate was incubated at 37°C for 1 hour in a 5% CO2 incubator to allow virus adsorption, swift rocking every 15'. Once discard the cell supernatant from all wells, 1 ml of 1,60% semi-solid carboxymethyl cellulose (CMC) overlay medium with 2% FBS was added to each well to limit the virus dissemination.
The plate was left 4 days at 37°C in a 5% CO2 incubator. Then cell monolayer was incubated with 1 ml of the 10% formol for a minimum 18 hours at room temperature for fixation. Once removed and fixed the overlay medium, the cell monolayer was washed in running water, stained with 1 ml of the 0.04% Violet crystal for 1 hour at room temperature, and the count of viral plaques to calculate plaque-forming unit (PFU) was conducted.

| Structure (SMILES) | virus replication (viral load expressed as log10 plaque forming equivalents) |
| --- | --- |
| Cc1cc(/C=C/C#N)cc(C)c1Nc1ccnc(Nc2ccc(C#N)cc2)n1.Cl [Rilpivirine hydrochloride, 4-[4-[4-[(E)-2-Cyanovinyl]-2,6-dimethylphenylamino]pyrimidin-2-ylamino]benzonitrile hydrochloride] | inhibition of virus replication |
| CCOc1nc2cccc(C(=O)OC(C)OC(=O)OC3CCCCC3)c2n1Cc1ccc(-c2ccccc2-c2nnn[nH]2)cc1 (racemic) [Candesartan cilexetil, (±)-2-Ethoxy-1-[2'-(1 H-tetrazol-5-yl)biphenyl-4-ylmethyl]-1 H-benzimidazole-7-carboxylic acid 1-(cyclohexyloxycarbonyloxy) ethyl ester] | inhibition of virus replication |
| Cn1c(=O)n(-c2ccc(C(C)(C)C#N)cc2)c2c3cc(-c4cnc5ccccc5c4)ccc3ncc21 [Dactolisib, 2-Methyl-2-[4-[3-methyl-2-oxo-8-(3-quinolinyl)-2,3-dihydro-1 H-imidazo[4,5-c]quinolin-1-yl]phenyl]propanenitrile] | inhibition of virus replication |
| CC[C@@H]([C@H](C)O)n1ncn(-c2ccc(N3CCN(c4ccc(OC[C@@H]5CO[C@@](Cn6cncn6)(c6ccc(F)cc6F)C5)cc4)CC3)cc2)c1=O [Posaconazole, 4-[4-[4-[4-[5(R)-(2,4-Difluorophenyl)-5-(1,2,4-triazol-1-ylmethyl)tetrahydrofuran-3(R)-ylmethoxy]phenyl]piperazin-1-yl]phenyl]-2-[1(S)-ethyl-2(S)-hydroxypropyl]-3,4-dihydro-2H-1,2,4-triazol-3-one] | inhibition of virus replication |
| NCCCC[C@H](NC(=O)[C@@H](Cc1cc(Br)c(O)c(Br)c1)NC(=O)N1CCC(N2Cc3ccccc3NC2=O)CC1)C(=O)N1CCN(c2ccncc2)CC1 [Olcegepant, N-[2-[5-Amino-1 (S)-[4-(4-pyridyl)piperazin-1-ylcarbonyl]pentylamino]-1(R)-(3,5-dibromo-4-hydroxybenzyl)-2-oxoethyl]-4-(2-oxo-1,2,3,4-tetrahydroquinazolin-3-yl)piperidine-1-carboxamide] | inhibition of virus replication |
| CCN1CCN(Cc2ccc(-c3cc4c(N[C@H](C)c5ccccc5)ncnc4[nH]3)cc2)CC1 [AEE-788, 6-[4-(4-Ethylpiperazin-1-ylmethyl)phenyl]-N-[1(R)-phenylethyl]-7H-pyrrolo[2,3-d]pyrimidin-4-amine] | inhibition of virus replication |
